Laboratory results reported in paper PMC7508162 (Frontiers in Pharmacology, 2020).

Columns and labels:
[1] = Metabolic stability in human liver microsomes; assay type: in vitro ADME; conditions: both sexes; human liver microsomes 0.5 mg/mL; compound 1 μM
Experimental: The experiments were performed by Pharmacelsus, Saarbrücken, Germany (https://www.pharmacelsus.com/services/in-vitro-adme/) using human and mouse liver microsomes (0.5 mg/mL, mixed gender, pooled). Compounds were tested at a concentration of 1 μM. Data points represent means of two separate experiments performed in duplicates.

[2] = biological target: T1, NTPDase2 (Homo sapiens, UniProt Q9Y5L3); experiment: Malachite green assay for NTPDase2; assay type: biochemical; parameters: expressed in transfected cells; host or cells: COS-7 cell membrane preparations; conditions: for Ki: ATP 50 µM, recombinant COS-7 cell membrane preparation, read-out: Ki ± SEM
T1 sequence (Q9Y5L3 1-495): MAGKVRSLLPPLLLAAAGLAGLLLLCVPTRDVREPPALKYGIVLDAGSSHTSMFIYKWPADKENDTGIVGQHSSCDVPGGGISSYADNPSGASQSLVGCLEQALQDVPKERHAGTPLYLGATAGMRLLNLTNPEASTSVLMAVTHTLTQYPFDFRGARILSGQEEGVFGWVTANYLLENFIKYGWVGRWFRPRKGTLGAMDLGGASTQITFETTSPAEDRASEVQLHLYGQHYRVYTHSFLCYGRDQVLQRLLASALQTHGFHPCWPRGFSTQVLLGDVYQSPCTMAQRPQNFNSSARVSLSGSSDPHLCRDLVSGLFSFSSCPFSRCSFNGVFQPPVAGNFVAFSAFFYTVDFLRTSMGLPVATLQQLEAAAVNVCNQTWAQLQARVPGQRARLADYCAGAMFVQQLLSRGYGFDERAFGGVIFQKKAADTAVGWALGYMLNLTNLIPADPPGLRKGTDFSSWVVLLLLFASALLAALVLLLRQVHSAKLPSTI
Experimental: The enzymatic activity assay was determined essentially as previously described ([Cogan et al., 1999]) with a few adaptations. The reaction buffer contained 10 mM HEPES, 2 mM CaCl2, 1 mM MgCl2, pH 7.4 in a final volume of 50 μl in transparent 96-well half area plates. For CD39 (NTPDase1), we made use of human umbilical cord membranes preparations which express high levels of the enzyme. For the other human NTPDase isoenzymes, we had to resort to recombinant expression. Human umbilical cord membrane preparations (250 ng) natively expressing high amounts of CD39, or the respective recombinant COS-7 cell membrane preparations expressing the appropriate NTPDase isoenzyme (ca. 100 ng of protein depending on enzyme activity) ([Sévigny et al., 1997]; [Lecka et al., 2013]) with or without inhibitor were preincubated at 37°C and gentle shaking (Eppendorf Thermomixer comfort at 500 rpm) for 5 min. The amount of enzyme preparation was adjusted to ensure 10–20% of substrate conversion. […] ([Kukulski et al., 2005]). After 15 min of incubation at 37°C with gentle shaking, the reaction was stopped by adding the detection reagents (20 µl malachite green solution, 0.6 mM, and 30 µl ammonium molybdate solution, 20 mM, in sulfuric acid, 1.5 M). The released (inorganic) phosphate was quantified after 20 min of gentle shaking at 25°C by measuring the absorption of the malachite green-phosphomolybdate complex at 600 nm using a BMG PheraStar FS plate reader (BMG Labtech GmbH, Ortenberg, Germany). The corrected absorption was calculated by subtracting the absorption of the negative control samples, which were incubated with denatured enzyme (90°C, 15 min), and the inhibition was calculated as follows:
% Inhibition=(B−T)/B*100%
where B is the average corrected absorption of the positive control without inhibitor and T the corrected absorption in the presence of test compound.
Full concentration-inhibition curves were determined with inhibitor concentrations ranging from 0.1 to 300 µM in the presence of 2% DMSO. Three independent experiments were performed (n = 3) and curves were calculated by the GraphPad Prism 8 software. The Ki value was calculated using the Cheng-Prusoff equation for competitive inhibitors: […]

Structure (SMILES)	half-life at 1 μM [1]	Ki ([2]; NTPDase2)	NTPDase2 inhibition (in words) [2]	% inhibition ([2]; NTPDase2, test concentration not given)
CCCCNc1nc2c(NC)ncnc2n1[C@@H]1O[C@H](COP(=O)(O)OP(=O)(O)C(Br)(Br)P(=O)(O)O)[C@@H](O)[C@H]1O [Compound 33, (Dibromo((((((2R,3S,4R,5R)-5-(8-(butylamino)-6-(methylamino)-9H-purin-9-yl)-3,4-dihydroxy-tetrahydrofuran-2-yl)methoxy)(hydroxy)phosphoryl)oxy)-(hydroxy)phosphoryl)methyl)-phosphonic Acid]	< 1 min	78 ± 0.6 µM		
CCCCSc1nc2c(N)ncnc2n1[C@@H]1O[C@H](COP(=O)(O)OP(=O)(O)C(Br)(Br)P(=O)(O)O)[C@@H](O)[C@H]1O [Compound 31, (((((((2R,3S,4R,5R)-5-(6-Amino-8-(butylthio)-9H-purin-9-yl)-3,4-dihydroxytetrahydrofuran-2-yl)methoxy)(hydroxy)-phosphoryl)oxy)(hydroxy)phosphoryl)dibromomethyl)-phosphonic Acid]	< 1 min	22.2 ± 0.5 µM	weakly inhibit	
CCN(CC)c1ncnc2c1ncn2[C@@H]1O[C@H](COP(=O)(O)OP(=O)(O)C(Br)(Br)P(=O)(O)O)[C@@H](O)[C@H]1O [ARL67156, (Dibromo((((((2R,3S,4R,5R)-5-(6-(diethylamino)-9H-purin-9-yl)-3,4-dihydroxytetrahydrofuran-2-yl)methoxy)-(hydroxy)-phosphoryl)oxy)(hydroxy)phosphoryl)methyl)-phosphonic Acid, reference compound]	< 1 min	> 50 µM		18%
